Active and inactive are the calls of the source. No cut-off for these calls is given here.
Tests used:
[1] = organism: Ovis aries; test: Inhibition of sheep tubulin polymerization at 100 uM by fluorescence assay
[2] = system: HOP-92; test: Cytotoxicity against human HOP92 cells assessed as growth inhibition at 10 uM after 24 hrs by SRB assay; assay type: functional
[3] = system: NCI-H226; test: Cytotoxicity against human NCI-H226 cells assessed as growth inhibition at 10 uM after 24 hrs by SRB assay; assay type: functional
[4] = system: SK-MEL-5; test: Cytotoxicity against human SK-MEL-5 cells assessed as growth inhibition at 10 uM after 24 hrs by SRB assay; assay type: functional
[5] = system: TK-10; test: Cytotoxicity against human TK10 cells assessed as growth inhibition at 10 uM after 24 hrs by SRB assay; assay type: functional
[6] = system: CAKI-1; test: Cytotoxicity against human CAKI-1 cells assessed as growth inhibition at 10 uM after 24 hrs by SRB assay; assay type: functional; conditions: for inhibition of growth at 10 µM: CAKI-1, 24 h, read-out: GI
[7] = system: HCT-116; test: Cytotoxicity against human HCT116 cells assessed as growth inhibition at 10 uM after 24 hrs by SRB assay; assay type: functional; conditions: for inhibition of growth at 10 µM: HCT-116, 24 h, read-out: GI
[8] = system: PC-3; test: Cytotoxicity against human PC3 cells assessed as growth inhibition at 10 uM after 24 hrs by SRB assay; assay type: functional; conditions: for inhibition of growth at 10 µM: PC-3, 24 h, read-out: GI
[9] = system: RXF 393; test: Cytotoxicity against human RXF393 cells assessed as growth inhibition at 10 uM after 24 hrs by SRB assay; assay type: functional; conditions: RXF 393, 24 h, read-out: GI
[10] = system: SNB-75; test: Cytotoxicity against human SNB75 cells assessed as growth inhibition at 10 uM after 24 hrs by SRB assay; assay type: functional; conditions: SNB-75, 24 h, read-out: GI
[11] = system: SR; test: Cytotoxicity against human SR cells assessed as growth inhibition at 10 uM after 24 hrs by SRB assay; assay type: functional; conditions: for inhibition of growth at 10 µM: read-out: GI
[12] = system: CCRF-CEM; test: Cytotoxicity against human CCRF-CEM cells assessed as growth inhibition at 10 uM after 24 hrs by SRB assay; assay type: functional
[13] = system: 786-0; test: Cytotoxicity against human 786-0 cells assessed as growth inhibition at 10 uM after 24 hrs by SRB assay; assay type: functional; conditions: 786-0, 24 h, read-out: GI
[14] = system: OVCAR-3; test: Cytotoxicity against human OVCAR3 cells assessed as growth inhibition at 10 uM after 24 hrs by SRB assay; assay type: functional
[15] = system: ACHN; test: Cytotoxicity against human ACHN cells assessed as growth inhibition at 10 uM after 24 hrs by SRB assay; assay type: functional; conditions: read-out: GI
[16] = system: T47D; test: Cytotoxicity against human T47D cells assessed as growth inhibition at 10 uM after 24 hrs by SRB assay; assay type: functional
[17] = system: NCI-H522; test: Cytotoxicity against human NCI-H522 cells assessed as growth inhibition at 10 uM after 24 hrs by SRB assay; assay type: functional; conditions: NCI-H522, 24 h, read-out: GI
[18] = system: K562; test: Cytotoxicity against human K562 cells assessed as growth inhibition at 10 uM after 24 hrs by SRB assay; assay type: functional
[19] = system: MDA-MB-231; test: Cytotoxicity against human MDA-MB-231 cells assessed as growth inhibition at 10 uM after 24 hrs by SRB assay; assay type: functional; conditions: MDA-MB-231, 24 h, read-out: GI
[20] = system: SK-MEL-28; test: Cytotoxicity against human SK-MEL-28 cells assessed as growth inhibition at 10 uM after 24 hrs by SRB assay; assay type: functional
[21] = system: NCI/ADR-RES; test: Cytotoxicity against human NCI/ADR-RES cells assessed as growth inhibition at 10 uM after 24 hrs by SRB assay; assay type: functional; conditions: read-out: GI
[22] = system: OVCAR-8; test: Cytotoxicity against human OVCAR8 cells assessed as growth inhibition at 10 uM after 24 hrs by SRB assay; assay type: functional; conditions: OVCAR-8, 24 h, read-out: GI
[23] = system: MCF7; test: Cytotoxicity against human MCF7 cells assessed as growth inhibition at 10 uM after 24 hrs by SRB assay; assay type: functional; conditions: for inhibition of growth at 10 µM: MCF7, 24 h, read-out: GI
[24] = system: SK-OV-3; test: Cytotoxicity against human SKOV3 cells assessed as growth inhibition at 10 uM after 24 hrs by SRB assay; assay type: functional; conditions: SK-OV-3, 24 h, read-out: GI
[25] = system: SF-295; test: Cytotoxicity against human SF295 cells assessed as growth inhibition at 10 uM after 24 hrs by SRB assay; assay type: functional; conditions: for inhibition of growth at 10 µM: SF-295, 24 h, read-out: GI
[26] = system: UACC-62; test: Cytotoxicity against human UACC62 cells assessed as growth inhibition at 10 uM after 24 hrs by SRB assay; assay type: functional; conditions: UACC-62, 24 h, read-out: GI
[27] = system: A549; test: Cytotoxicity against human A549 cells assessed as growth inhibition at 10 uM after 24 hrs by SRB assay; assay type: functional; conditions: A549, 24 h, read-out: GI
[28] = Cytotoxicity against human Hs578T cells assessed as growth inhibition at 10 uM after 24 hrs by SRB assay; assay type: functional; conditions: Hs-578T, read-out: GI
[29] = system: MDA-MB-435; test: Cytotoxicity against human MDA-MB-435 cells assessed as growth inhibition at 10 uM after 24 hrs by SRB assay; assay type: functional
[30] = system: OVCAR-4; test: Cytotoxicity against human OVCAR4 cells assessed as growth inhibition at 10 uM after 24 hrs by SRB assay; assay type: functional
[31] = system: NCI-H460; test: Cytotoxicity against human NCI-H460 cells assessed as growth inhibition at 10 uM after 24 hrs by SRB assay; assay type: functional
[32] = system: Malme-3M; test: Cytotoxicity against human MALME-3M cells assessed as growth inhibition at 10 uM after 24 hrs by SRB assay; assay type: functional; conditions: for inhibition of growth at 10 µM: read-out: GI
[33] = system: U-251; test: Cytotoxicity against human U251 cells assessed as growth inhibition at 10 uM after 24 hrs by SRB assay; assay type: functional; conditions: U-251, 24 h, read-out: GI
[34] = system: HL-60(TB); test: Cytotoxicity against human HL-60(TB) cells assessed as growth inhibition at 10 uM after 24 hrs by SRB assay; assay type: functional
[35] = system: RPMI-8226; test: Cytotoxicity against human RPMI8226 cells assessed as growth inhibition at 10 uM after 24 hrs by SRB assay; assay type: functional
[36] = system: HOP-62; test: Cytotoxicity against human HOP62 cells assessed as growth inhibition at 10 uM after 24 hrs by SRB assay; assay type: functional; conditions: HOP-62, 24 h, read-out: GI
[37] = system: SF-539; test: Cytotoxicity against human SF539 cells assessed as growth inhibition at 10 uM after 24 hrs by SRB assay; assay type: functional; conditions: SF-539, 24 h, read-out: GI
[38] = system: UACC-257; test: Cytotoxicity against human UACC257 cells assessed as growth inhibition at 10 uM after 24 hrs by SRB assay; assay type: functional; conditions: for inhibition of growth at 10 µM: UACC-257, 24 h, read-out: GI

COc1nc(OC)nc(-c2cc(C(=O)c3ccc(C#N)cc3)n3ccccc23)n1
inhibition [1]: inactive

Cn1c(-c2cc(C(=O)c3ccc(Br)cc3)n3ccccc23)nc(=O)[nH]c1=O
inhibition [1]: inactive

COc1ccc(C(=O)c2cc(-c3nc(OC)nc(OC)n3)c3ccccn23)cc1
growth inhibition (GI) [2]: inactive
inhibition of growth at 10 µM ([3]; NCI-H226, 24 h, read-out: GI): 12%
growth inhibition (GI) [4]: inactive
inhibition of growth at 10 µM ([5]; TK-10, 24 h, read-out: GI): 18%
inhibition of growth at 10 µM [6]: 26%
inhibition of growth at 10 µM [7]: 36%
inhibition of growth at 10 µM [8]: 18%
inhibition of growth at 10 µM [9]: 59%
inhibition of growth at 10 µM [10]: -17%
inhibition of growth at 10 µM [11]: 19%
growth inhibition (GI) [12]: inactive
inhibition of growth at 10 µM [13]: 27%
growth inhibition (GI) [14]: inactive
inhibition of growth at 10 µM [15]: 54%
inhibition of growth at 10 µM ([16]; read-out: GI): 17%
inhibition [1]: inactive
inhibition of growth at 10 µM [17]: 60%
growth inhibition (GI) [18]: inactive
inhibition of growth at 10 µM [19]: 50%
growth inhibition (GI) [20]: inactive
inhibition of growth at 10 µM [21]: 19%
inhibition of growth at 10 µM [22]: 16%
inhibition of growth at 10 µM [23]: 13%
inhibition of growth at 10 µM [24]: 54%
inhibition of growth at 10 µM [25]: 47%
inhibition of growth at 10 µM [26]: 11%
inhibition of growth at 10 µM [27]: 21%
inhibition of growth at 10 µM [28]: 25%
growth inhibition (GI) [29]: inactive
growth inhibition (GI) [30]: inactive
growth inhibition (GI) [31]: inactive
growth inhibition (GI) [32]: inactive
inhibition of growth at 10 µM [33]: 56%
growth inhibition (GI) [34]: inactive
growth inhibition (GI) [35]: inactive
inhibition of growth at 10 µM [36]: 97%
inhibition of growth at 10 µM [37]: 32%
growth inhibition (GI) [38]: inactive

COc1nc(OC)nc(-c2cc(C(=O)c3cc(OC)c(OC)c(OC)c3)n3ccc(C)cc23)n1
growth inhibition (GI) [2]: inactive
growth inhibition (GI) [3]: inactive
inhibition of growth at 10 µM ([4]; SK-MEL-5, 24 h, read-out: GI): 63%
growth inhibition (GI) [5]: inactive
inhibition of growth at 10 µM [6]: 25%
inhibition of growth at 10 µM [7]: 27%
inhibition of growth at 10 µM [8]: 36%
inhibition of growth at 10 µM [9]: 41%
inhibition of growth at 10 µM [10]: 58%
inhibition of growth at 10 µM [11]: 74%
inhibition of growth at 10 µM ([12]; read-out: GI): 26%
inhibition of growth at 10 µM [13]: 20%
inhibition of growth at 10 µM ([14]; OVCAR-3, 24 h, read-out: GI): 75%
inhibition of growth at 10 µM [15]: 47%
inhibition [1]: inactive
inhibition of growth at 10 µM [17]: 43%
inhibition of growth at 10 µM ([18]; K562, 24 h, read-out: GI): 56%
inhibition of growth at 10 µM [19]: 25%
inhibition of growth at 10 µM ([20]; SK-MEL-28, 24 h, read-out: GI): 40%
inhibition of growth at 10 µM [21]: 24%
inhibition of growth at 10 µM [22]: 15%
inhibition of growth at 10 µM [23]: 73%
inhibition of growth at 10 µM [24]: 29%
growth inhibition (GI) [25]: inactive
inhibition of growth at 10 µM [26]: 63%
inhibition of growth at 10 µM [27]: 36%
inhibition of growth at 10 µM [28]: 35%
inhibition of growth at 10 µM ([29]; MDA-MB-435, 24 h, read-out: GI): 100%
inhibition of growth at 10 µM ([30]; OVCAR-4, 24 h, read-out: GI): 21%
inhibition of growth at 10 µM ([31]; NCI-H460, 24 h, read-out: GI): 16%
inhibition of growth at 10 µM [32]: 61%
inhibition of growth at 10 µM [33]: 15%
inhibition of growth at 10 µM ([34]; HL-60, 24 h, read-out: GI): 60%
inhibition of growth at 10 µM ([35]; RPMI-8226, 24 h, read-out: GI): 30%
inhibition of growth at 10 µM [36]: 28%
inhibition of growth at 10 µM [37]: 29%
inhibition of growth at 10 µM [38]: 38%

COc1nc(OC)nc(-c2cc(C(=O)c3ccc(F)cc3)n3ccccc23)n1
inhibition [1]: inactive

COc1nc(OC)nc(-c2cc(C(=O)c3ccc(Br)cc3)n3cc(C)cc(C)c23)n1
inhibition [1]: inactive

COc1nc(OC)nc(-c2cc(C(=O)c3ccc(C)cc3)n3ccc(C#N)cc23)n1
inhibition of growth at 10 µM ([2]; HOP-92, 24 h, read-out: GI): 11%
growth inhibition (GI) [3]: inactive
growth inhibition (GI) [4]: inactive
growth inhibition (GI) [5]: inactive
growth inhibition (GI) [6]: inactive
growth inhibition (GI) [7]: inactive
growth inhibition (GI) [8]: inactive
inhibition of growth at 10 µM [9]: 52%
inhibition of growth at 10 µM [10]: -14%
growth inhibition (GI) [11]: inactive
growth inhibition (GI) [12]: inactive
inhibition of growth at 10 µM [13]: 40%
growth inhibition (GI) [14]: inactive
inhibition of growth at 10 µM [15]: 15%
growth inhibition (GI) [16]: inactive
inhibition [1]: inactive
inhibition of growth at 10 µM [17]: 21%
growth inhibition (GI) [18]: inactive
inhibition of growth at 10 µM [19]: 39%
growth inhibition (GI) [20]: inactive
inhibition of growth at 10 µM [22]: 14%
growth inhibition (GI) [23]: inactive
inhibition of growth at 10 µM [24]: 42%
inhibition of growth at 10 µM [25]: 47%
inhibition of growth at 10 µM [26]: 14%
inhibition of growth at 10 µM [27]: 11%
inhibition of growth at 10 µM [28]: 42%
growth inhibition (GI) [29]: inactive
growth inhibition (GI) [30]: inactive
growth inhibition (GI) [31]: inactive
inhibition of growth at 10 µM [32]: 17%
inhibition of growth at 10 µM [33]: 56%
growth inhibition (GI) [34]: inactive
growth inhibition (GI) [35]: inactive
inhibition of growth at 10 µM [36]: 60%
inhibition of growth at 10 µM [37]: 42%
inhibition of growth at 10 µM [38]: 16%

COc1nc(-c2cc(C(=O)c3ccc(Br)cc3)n3ccccc23)[nH]c(=O)n1
inhibition [1]: inactive

COc1nc(OC)nc(-c2cc(C(=O)c3ccc(-c4ccccc4)cc3)n3ccccc23)n1
inhibition [1]: inactive

O=C(c1ccc(Br)cc1)c1cc(-c2nc(=O)[nH]c(=O)[nH]2)c2ccccn12
inhibition [1]: inactive

— ChEMBL document CHEMBL3612057, “Discovery of indolizines containing triazine moiety as new leads for the development of antitumoral agents targeting mitotic events” (2015)
